The text below walks through data of patent US20260294922A1, “Inhibitors of JUN N-Terminal Kinases (JNK1, JNK2, and/or JNK3) and Mitogen-Activated Protein Kinases (MAPK8, MAPK9, and/or MAPK10) and Methods of Using Same” (Baylor College of Medicine, priority 2023, published 2026).

The subject of one data set is iHEEC. As to the kind of experiment: Cell morphology, phospho-JNK and vimentin staining in iHEEC. In kind it is cell-based, human. From the text:
FIGS. 28A-28C depict the impact of JNK inhibition on the cellular morphology and expression of surface marker, vimentin in iHEEC. […] Phospho-JNK staining in iHEEC can be either punctate staining in intracellular organelles or disperse staining through the cytoplasmic space of cells.

A further data set addresses T1, ERK2 (Homo sapiens, UniProt P28482).
T1 construct: purchased ThermoFisher (SelectScreen, outsourced service)
The data set can be described thus: ThermoFisher SelectScreen, ERK2. In kind it is binding.

The subject of data set [1] is endometriotic lesions. As to the kind of experiment: Immunofluorescent staining of endometriotic lesions from treated mice. In kind it is in vivo. The settings on record: 14 days, intraperitoneal. The text has this: FIG. 23 depicts immunofluorescent staining of sections of remaining endometriotic lesions following 14 days of treatment with CDD-2728 or with a vehicle solution (i.e., Captisol) by intraperitoneal administration.
This illustrates a common mechanism of JNK-I from the chemical series of the disclosure and their ability to target endometriotic lesions, and the innate immune cells that drive an inflammatory response within the lesions.

The subject of data set [2] is 12Z endometriotic epithelial cells. The data set can be described thus: IL-1β-stimulated pro-inflammatory gene expression (qPCR) in 12Z cells. To be noted: relative to bentamapimod. In kind it is cell-based, human. From the text:
These studies indicate that NanoBRET assays are an innovative technical platform to measure target engagement of CDD JNK inhibitors with the target JNK1, JNK2 or JNK3. As further evidence that JNK inhibitors address disease-relevant endpoints, biological responses of JNK inhibitors are provided herein, as measured in target tissue cellular models. 12Z immortalized endometriotic epithelial cells and patient-derived endometriotic stromal cells have been cultured with reference compound bentamapimod, CDD-2628, and CDD-2728. To exemplify the effects of CDD-2628 and CDD-2728 in the endometrial cell cultures, gene expression was measured using qPCR (expressed as fold-change relative to GAPDH, a housekeeping gene that is not affected by culture treatment effects) that reflect synthesis of inflammatory lipids (PTGS2), transformation of cells to a more migration and invasive potential (MMP-3) and chemoattractant cytokines to recruit pro-inflammatory immune cells (IL-6, IL-8).
In the culture systems employed in FIGS. 12A-12J, FIGS. 13A-13B, FIGS. 14A-14H, FIGS. 15A-15H, and FIGS. 16A-16F, the treatment of cells with IL-1β is used to mimic the peritoneal environment where IL-1β is most frequently measured at higher concentrations in patients with endometriosis (0.1 ng/mL-1 ng/mL) than in unaffected women (<0.01 ng/mL). The use of IL-1β to mimic the pro-inflammatory environment is a common method in cellular assays for endometriosis research. Although the concentrations of IL-1β in these cell cultures are higher than measured in peritoneal fluid, there are multiple other pro-inflammatory cytokines in peritoneal fluid that contribute to the pro-inflammatory environment.
Specifically, 12Z cells were plated at a density of 1×10^5 cells/well in a 12-well tissue culture plate, serum-starved overnight (17-18 h), pre-treated with vehicle (DMSO) or JNK inhibitor for 30 minutes, then stimulated with 10 ng/ml IL-1β in the presence or absence of the JNK inhibitors for 6 hours. After the 6-hour treatment, mRNA was extracted from the cells using the Qiagen RNEasy mini isolation kit and […] of mRNA was reverse transcribed into cDNA using the qScript cDNA Supermix (Quanta Biosciences). cDNA was amplified using SYBR Green Master Mix (Applied Biosystems) with quantitative Real Time PCR (BioRad CFX) using pre-designed and validated primers specific for genes encoding IL6, IL8, PTGS2/COX2, and MMP3 (BioRad). Relative quantification of these specific genes was calculated by the ΔΔCt method, normalizing their abundance relative to the internal housekeeping gene, GAPDH, followed by quantification relative to the vehicle-treated cells. Statistical analyses and visualizations were performed using a One Way ANOVA with a Tukey's multiple comparison post-hoc test on GraphPad Prism version 9.
Background: Quantitative PCR measures a nucleic acid by following its amplification.

Data set [3] has as its system endometriotic lesions. As to the kind of experiment: Mouse model of induced endometriosis. The settings on record: 14 days of treatment. The method, then:
FIG. 22A presents the design of an in vivo model in which JNK-I were evaluated for their ability to cause regression of endometriosis in mice. […] In this experimental design, endometriosis is induced by introducing isolated endometrial tissues from a donor mouse, and the prepared endometrial cells are introduced into the peritoneal cavity of recipient mice. Fourteen (14) days after induction of endometriosis, drug treatments are initiated and continued for 14 days. At the end of study (i.e., 28 days) the presence of endometriosis lesions are determined and various measurements performed.

Entries after “also recorded” stand apart in the source; their conditions may differ.

T1 sequence (P28482 whole entry): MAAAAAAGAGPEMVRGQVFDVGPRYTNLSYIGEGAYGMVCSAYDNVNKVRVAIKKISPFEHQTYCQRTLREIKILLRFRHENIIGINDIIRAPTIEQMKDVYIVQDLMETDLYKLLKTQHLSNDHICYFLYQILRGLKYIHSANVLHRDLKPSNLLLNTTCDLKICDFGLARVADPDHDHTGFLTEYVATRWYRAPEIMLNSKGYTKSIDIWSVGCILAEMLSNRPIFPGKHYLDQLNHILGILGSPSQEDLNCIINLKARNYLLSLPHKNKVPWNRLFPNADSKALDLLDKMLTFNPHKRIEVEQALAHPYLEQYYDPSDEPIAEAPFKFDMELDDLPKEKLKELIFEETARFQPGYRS

One may read the Kd as the free concentration of one partner at which half of the binding sites on the other are occupied at equilibrium, for simple one-to-one binding. A low value points to higher affinity. As to `CN(C)C(=O)c1cc(NC(=O)c2cc3c(-c4cnc5[nH]ccc5c4)cccc3s2)ccc1O` [CDD-2728, N-(3-(dimethylcarbamoyl)-4-hydroxyphenyl)-4-(1H-pyrrolo[2,3-b]pyridin-5-yl)benzo[b]thiophene-2-carboxamide], in the data set with iHEEC, the phospho-JNK staining entry was “reduce the intensity of phospho-JNK staining” and the vimentin staining result was “not a dramatic change in the vimentin staining”. The compound further gave a Kd at ERK2 of 534 nM. Besides, in the data set on endometriotic lesions [1], the “CD31 (endothelial cells, angiogenesis)” value is “reduces the presence of cells corresponding to leukocytes, platelets, and endothelial cells (CD31); also recorded: angiogenesis (anti-CD31 antibody)”; the “macrophage infiltration (F4/80)” value is “decreases infiltration of endometriotic lesions by macrophages (F4/80)”; the “proliferation of lesions (Ki67)” value was “reduced rates of proliferative cell growth; also recorded: reduced cellular proliferation”. Further, in data set [2], the IL-6 expression entry was “equally effective”, the IL-8 expression result is reported as “more potent inhibitors of IL-8 expression than bentamapimod; also recorded: effectively suppressed IL-8 production”, the MMP-3 expression entry was “more potent than CDD-939 at inhibiting MMP-3 expression; also recorded: more effective than bentamapimod” and the PTGS2 expression result is reported as “more effective than bentamapimod”. In addition, the “impact on uterine, liver or kidney weight / other tissues” value in the data set on endometriotic lesions [3] is recorded as “no impact”.
